The results in this text go back to US10219516B2, “Molecules having pesticidal utility, and intermediates, compositions, and processes, related thereto” (priority 2015, dated 2019).

Molecules are shown by their SMILES. Where two headings read alike, the source gives them in different places.

Holding throughout (assay type): in vivo
Assay [1] relates to Beet Armyworm (Spodoptera exigua, LAPHEG). The assay is described as follows: Bioassay on Beet Armyworm (BAW), 128-well diet tray assay. An outline of the steps: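 Second-instar larvae, one to five per well, placed on artificial diet surface-treated with 50 μg/cm^2 compound applied in 90:10 acetone-water and dried. Held 5–7 days at 25° C., 14:10 light-dark. Percent mortality recorded per well and averaged over eight wells.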

Assay [2] relates to Cabbage Looper (Trichoplusia ni, TRIPNI). The experiment in a line: Bioassay on Cabbage Looper (CL), 128-well diet tray assay. As to conditions: Trichoplusia ni. An outline of the steps: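 Percent mortality, averaged across eight replicate wells, was scored after five to seven days at 25° C. under a 14:10 light-dark cycle. Each well held one to five second instar larvae on artificial diet treated at 50 μg/cm^2 with compound from 90:10 acetone-water, allowed to dry before infestation.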

The test system of assay [3] is Yellow Fever Mosquito (Aedes aegypti, AEDSAE). The experiment in a line: Bioassay on Yellow Fever Mosquito (YFM), 96-well plate larval assay. Particulars: for YFM rating: Yellow Fever Mosquito, 96-well plate larval assay; for YFM (Biological Results, rating): Species YFM (Yellow Fever Mosquito). An outline of the steps: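 Aedes aegypti larvae (about 1 day old) in liver-powder water were added to plates dispensed from DMSO master plates (4000 ppm stock) diluted with 90:10 water/acetone; six replicate plates per master. Lidded plates were held at room temperature for 3 days, then each well was scored for mortality.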

The mark [4] stands for this setting: Beet Armyworm, 128-well diet tray assay, read-out: BAW rating.
[5] abbreviates: Cabbage Looper, 128-well diet tray assay, read-out: CL rating.
The mark [6] stands for this setting: Species BAW (Beet Armyworm), read-out: BAW (Biological Results, rating).
[7] abbreviates: Species CL (Cabbage Looper), read-out: CL (Biological Results, rating).

With `O=C(Nc1ccc(F)cc1F)c1cc(NC(=O)[C@H]2[C@H](c3ccc(C(F)F)c(Cl)c3)C2(Cl)Cl)ccc1Cl` (relative stereo) [F562, 2-Chloro-5-(trans-2,2-dichloro-3-(3-chloro-4-(difluoromethyl)phenyl)cyclopropane-1-carboxamido)-N-(2,4-difluorophenyl)benzamide], the pest or weed control at 50 µg/cm2 in assay [1] (setting [4]) and in assay [2] (setting [5]) was 50 to 100% each time. For the same compound, in assay [3], the YFM rating entry is reported as “A (80-100)”.

Turning to `COc1ccc(NC(=O)c2cc(NC(=O)[C@H]3[C@H](c4ccc(F)c(Cl)c4)C3(Cl)Cl)ccc2Cl)cn1` (relative stereo) [F551, 2-Chloro-5-(trans-2,2-dichloro-3-(3-chloro-4-fluorophenyl)cyclopropane-1-carboxamido)-N-(6-methoxypyridin-3-yl)benzamide], the pest or weed control at 50 µg/cm2 in assay [1] (setting [4]) and in assay [2] (setting [5]) was 50 to 100% throughout. In addition, the YFM rating entry in assay [3] was “A (80-100)”.

On to `Nc1cc(F)ccc1NC(=O)c1cc(NC(=O)[C@H]2[C@H](c3cc(Cl)cc(Cl)c3)C2(Cl)Cl)ccc1Cl` (relative stereo) [F361, trans-N-(2-amino-4-fluorophenyl)-2-chloro-5-(2,2-dichloro-3-(3,5-dichlorophenyl)cyclopropane-1-carboxamido)benzamide], for which the pest or weed control at 50 µg/cm2 in assay [1] (setting [6]) and in assay [2] (setting [7]) was 50 to 100% in each case. Further, the “YFM (Biological Results, rating)” value in assay [3] is “A (80-100)”.

On to `O=C(Nc1nc(-c2cccs2)cs1)c1cc(NC(=O)[C@H]2[C@H](c3cc(Cl)cc(Cl)c3)C2(Cl)Cl)ccc1Cl` (relative stereo) [PF135, trans-2-Chloro-5-(2,2-dichloro-3-(3,5-dichlorophenyl)cyclopropane-1-carboxamido)-N-(4-(thiophen-2-yl)thiazol-2-yl)benzamide], for which the pest or weed control at 50 µg/cm2 in assay [1] (setting [4]) and in assay [2] (setting [5]) was 50 to 100% each time. The YFM rating entry in assay [3] is recorded as “A (80-100)”.

For the compound `O=C(Nc1ccc(F)cc1F)c1cc(NC(=O)[C@H]2[C@H](c3cc(Cl)c(Cl)c(Cl)c3)C2(Cl)Cl)ccc1Cl` [F281, 2-Chloro-5-((1R,3R)-2,2-dichloro-3-(3,4,5-trichlorophenyl)cyclopropane-1-carboxamido)-N-(2,4-difluorophenyl)benzamide], the pest or weed control at 50 µg/cm2 in assay [1] (setting [6]) and in assay [2] (setting [7]) was 50 to 100% each time. Besides, the “YFM (Biological Results, rating)” value in assay [3] is reported as “A (80-100)”.

For the compound `O=C(Nc1ccc(I)cc1F)c1cc(NC(=O)[C@H]2[C@H](c3cc(Cl)cc(Cl)c3)C2(Cl)Cl)ccc1Cl` (relative stereo) [F203, trans-2-Chloro-5-(2,2-dichloro-3-(3,5-dichlorophenyl)cyclopropane-1-carboxamido)-N-(2-fluoro-4-iodophenyl)benzamide], the pest or weed control at 50 µg/cm2 in assay [1] (setting [6]) and in assay [2] (setting [7]) was 50 to 100% each time. Also, the “YFM (Biological Results, rating)” value in assay [3] was “A (80-100)”.

With `C#Cc1ccc([C@H]2[C@H](C(=O)Nc3ccc(Cl)c(C(=O)Nc4ccc(F)cc4C#N)c3)C2(Cl)Cl)cc1Cl` (relative stereo) [F401, 2-chloro-N-(2-cyano-4-fluorophenyl)-5-(trans-2,2-dichloro-3-(3-chloro-4-ethynylphenyl)cyclopropane-1-carboxamido)benzamide], the pest or weed control at 50 µg/cm2 in assay [1] (setting [4]) and in assay [2] (setting [5]) was 50 to 100% throughout. For the same compound, in assay [3], the YFM rating result is reported as “A (80-100)”.

In the case of `Nc1ccc(F)c(NC(=O)c2cc(NC(=O)[C@H]3[C@H](c4cc(Cl)cc(Cl)c4)C3(Cl)Cl)ccc2Cl)c1` [F427, N-(5-Amino-2-fluorophenyl)-2-chloro-5-((1R,3R)-2,2-dichloro-3-(3,5-dichlorophenyl)cyclopropane-1-carboxamido)benzamide], the pest or weed control at 50 µg/cm2 in assay [1] (setting [4]) and in assay [2] (setting [5]) was 50 to 100% in each case. For the same compound, in assay [3], the YFM rating entry was “A (80-100)”.

For `Cn1ccc2cccc(NC(=O)c3cc(NC(=O)[C@H]4[C@H](c5cc(Cl)cc(Cl)c5)C4(Cl)Cl)ccc3Cl)c21` (relative stereo) [F531, 2-Chloro-5-(trans)-(2,2-dichloro-3-(3,5-dichlorophenyl)cyclopropane-1-carboxamido)-N-(1-methyl-1H-indol-7-yl)benzamide], the pest or weed control at 50 µg/cm2 in assay [1] (setting [4]) and in assay [2] (setting [5]) was 50 to 100% throughout. In addition, the YFM rating entry in assay [3] is reported as “A (80-100)”.

With `O=C(Nc1ccc(F)cc1F)c1cccc(NC(=O)C2C(c3cc(Cl)cc(Cl)c3)C2(Cl)Cl)c1` (stereo not drawn) [F186, 3-(trans)-2,2-Dichloro-3-(3,5-dichlorophenyl)cyclopropane-1-carboxamido)-N-(2,4-difluorophenyl)benzamide], the pest or weed control at 50 µg/cm2 in assay [1] (setting [6]) and in assay [2] (setting [7]) was 50 to 100% throughout. The “YFM (Biological Results, rating)” value in assay [3] is “B (More than 0-Less than 80)”.

Turning to `N#Cc1ccc(Br)cc1NC(=O)c1cc(NC(=O)[C@H]2[C@H](c3cc(Cl)cc(Cl)c3)C2(Cl)Cl)ccc1Cl` (relative stereo) [F303, N-(5-Bromo-2-cyanophenyl)-2-chloro-5-(trans-2,2-dichloro-3-(3,5-dichlorophenyl)cyclopropane-1-carboxamido)benzamide], the pest or weed control at 50 µg/cm2 in assay [1] (setting [6]) and in assay [2] (setting [7]) was 50 to 100% in each case. For the same compound, the “YFM (Biological Results, rating)” value in assay [3] is reported as “A (80-100)”.

Take `Nc1cc(F)cc(NC(=O)c2cc(NC(=O)[C@H]3[C@H](c4ccc(F)c(Cl)c4)C3(Cl)Cl)ccc2Cl)c1` [F433, N-(3-Amino-5-fluorophenyl)-2-chloro-5-((1R,3R)-2,2-dichloro-3-(3-chloro-4-fluorophenyl)cyclopropane-1-carboxamido)benzamide]: the pest or weed control at 50 µg/cm2 in assay [1] (setting [4]) and in assay [2] (setting [5]) was 50 to 100% in each case. In addition, the YFM rating entry in assay [3] was “A (80-100)”.

Regarding `O=C(Nc1ccc(F)cc1F)c1cc(NC(=O)[C@H]2[C@H](c3ccc(Cl)c(Cl)c3)C2(Cl)Cl)ccc1Cl` [F211, 2-Chloro-5-((1R,3R)-2,2-dichloro-3-(3,4-dichlorophenyl)cyclopropane-1-carboxamido)-N-(2,4-difluorophenyl)benzamide], the pest or weed control at 50 µg/cm2 in assay [1] (setting [6]) and in assay [2] (setting [7]) was 50 to 100% in each case. In addition, in assay [3], the “YFM (Biological Results, rating)” value is “A (80-100)”.

In the case of `O=C(Nc1ccc(F)cc1F)c1cc(NC(=O)[C@@H]2[C@@H](c3ccc(Cl)c(Cl)c3)C2(Cl)Cl)ccc1Cl` [F210, 2-Chloro-5-((1S,3S)-2,2-dichloro-3-(3,4-dichlorophenyl)cyclopropane-1-carboxamido)-N-(2,4-difluorophenyl)benzamide], the pest or weed control at 50 µg/cm2 in assay [1] (setting [6]) and in assay [2] (setting [7]) was 50 to 100% each time. For the same compound, the “YFM (Biological Results, rating)” value in assay [3] is on record as “A (80-100)”.

For the compound `CN1Cc2ccc(NC(=O)c3cc(NC(=O)[C@H]4[C@H](c5cc(Cl)cc(Cl)c5)C4(Cl)Cl)ccc3Cl)cc2C1=O` (relative stereo) [F517, 2-Chloro-5-(trans)-(2,2-dichloro-3-(3,5-dichlorophenyl)cyclopropane-1-carboxamido)-N-(2-methyl-3-oxoisoindolin-5-yl)benzamide], the pest or weed control at 50 µg/cm2 in assay [1] (setting [4]) and in assay [2] (setting [5]) was 50 to 100% throughout. Besides, the YFM rating result in assay [3] was “A (80-100)”.

With `COc1ccc(NC(=O)c2cc(NC(=O)[C@H]3[C@H](c4cc(Cl)cc(Cl)c4)C3(Cl)Cl)ccc2Cl)cn1` (relative stereo) [F550, 2-Chloro-5-(trans-2,2-dichloro-3-(3,5-dichlorophenyl)cyclopropane-1-carboxamido)-N-(6-methoxypyridin-3-yl)benzamide], the pest or weed control at 50 µg/cm2 in assay [1] (setting [4]) and in assay [2] (setting [5]) was 50 to 100% each time. Besides, the YFM rating entry in assay [3] was “A (80-100)”.

As for `O=C(Nc1ccc(F)cc1)c1cc(NC(=O)[C@@H]2[C@@H](c3ccc(Cl)c(Cl)c3)C2(Cl)Cl)ccc1Cl` [F208, 2-Chloro-5-((1S,3S)-2,2-dichloro-3-(3,4-dichlorophenyl)cyclopropane-1-carboxamido)-N-(4-fluorophenyl)benzamide], the pest or weed control at 50 µg/cm2 in assay [1] (setting [6]) and in assay [2] (setting [7]) was 50 to 100% each time. Besides, the “YFM (Biological Results, rating)” value in assay [3] is “A (80-100)”.

Turning to `Cc1cc(F)ccc1N(C)C(=O)c1cc(NC(=O)[C@H]2[C@H](c3ccc(F)c(Cl)c3)C2(Cl)Cl)ccc1Cl` (relative stereo) [PF50, trans-2-Chloro-5-(2,2-dichloro-3-(3-chloro-4-fluorophenyl)cyclopropane-1-carboxamido)-N-(4-fluoro-2-methylphenyl)-N-methylbenzamide], the pest or weed control at 50 µg/cm2 in assay [1] (setting [4]) and in assay [2] (setting [5]) was 50 to 100% in each case. For the same compound, in assay [3], the YFM rating entry is “A (80-100)”.

Regarding `N#Cc1ccccc1NC(=O)c1cc(NC(=O)[C@H]2[C@H](c3cc(Cl)cc(Cl)c3)C2(Cl)Cl)ccc1Cl` (relative stereo) [PF72, trans-2-Chloro-N-(2-cyanophenyl)-5-(2,2-dichloro-3-(3,5-dichlorophenyl)cyclopropane-1-carboxamido)benzamide], the pest or weed control at 50 µg/cm2 in assay [1] (setting [4]) and in assay [2] (setting [5]) was 50 to 100% in each case. The YFM rating entry in assay [3] was “A (80-100)”.
